This is an account of results in article PMC9468151, “Identification of a binding site on soluble RANKL that can be targeted to inhibit soluble RANK-RANKL interactions and treat osteoporosis” (Nature Communications, 2022).

By CC50 is commonly meant the concentration at which the toxic effect on the cells reaches its halfway point. By IC50 is commonly meant the midpoint of a concentration-inhibition curve.

Values joined by “and” are separate entries in the source; they are usually repeats but may differ in a detail not shown here. Identical values can stand only once. “Also recorded” adds a separate entry of the source.

The subject of one series is RAW264.7 cells. The series is described as follows: In vitro cytotoxicity assay (MTT). The following applies: RAW264.7, MTT. It is filed as cell-based, mouse. How it is done:
MTT assay was used to determine cell viability. RAW264.7 cells in the logarithmic growth phase were cultured in 96-well plates with 6 × 10^3 cells in each well and incubated for 24 h. The surviving cells were then determined by MTT method. […] Cell growth inhibition ratio was calculated as follows: Cellgrowthinhibitionratio%=ODvehicle−ODtreaed/ODvehicle×100%
Cell cytotoxicity CC50 value were conducted by using Nonlinear regression (curve fit) analytic procedure in GraphPad Prism 8.

Series [1] relates to sRANKL induced osteoclast differentiation. The series is described as follows: In vitro anti-osteoclastogenesis activity determination (TRAP staining). The series is classed as cell-based, mouse. On the set-up: key to inhibition of osteoclastogenesis, dose-response (fig. S2a): % inhibition = 100 − (treated−unstimulated)/(untreated−unstimulated)×100. The note with it: for IC50 / OC IC50 (anti-osteoclastogenesis activity): BMMs, M-CSF + 100 ng/mL sRANKL, 5 days, TRAP staining; for IC50: read-out: OC IC50 (anti-osteoclastogenesis activity); for inhibition of osteoclastogenesis, dose-response (fig. S2a): three replicate columns. The method, then:
Mouse osteoclasts were cultured according to the previously reported protocols. BMMs were plated in 96-well plates at a density of 6 × 10^3 cells/well with complete medium containing 10 ng/mL M-CSF. The following day, cells were then stimulated with 100 ng/mL sRANKL in the presence or absence of compounds with different concentrations every 2 days until osteoclasts formed. In order to calculate IC50, we set 9 concentrations for each compound and untreated and non-sRANKL unstimulating group as controls, each with triplicated repeated wells. After 5 days, cells were fixed with 4% paraformaldehyde and then applied TRAP-staining to identify osteoclasts by using the TRAP-staining kit. Osteoclasts number (OC No.) in each well was counted and the percentage of inhibition ratio was calculated as follows:1 OCinhibitoryratio%=100−OCNo.treated−OCNo.unstimulating/OCNo.untreated−OCNo.unstimulating×100%
The dosages and their correspondent osteoclastogenesis inhibitory activity curve and IC50 value were conducted by using Nonlinear regression (curve fit) analytic procedure in GraphPad Prism 8. Photographs of individual wells were taken using Leica microscope.

`CC(C)OC(=O)C(=NNc1ccccc1C(=O)O)C(=O)Nc1ccccn1` [S3-15-4]: it took 57.2 µM to reach half-maximal cytotoxicity with RAW264.7 cells (CC50). Also, in series [1], the half-maximal inhibitory concentration (IC50) amounted to 0.62 µM. Besides, the “inhibition of osteoclastogenesis, dose-response (fig. S2a)” value (“inhibition of osteoclastogenesis” below) was 19.4737 and 18.6842 and 17.1053 in series [1] (conc. 0.0023464 μM); 16.7105 and 16.3158 and 13.9474 in series [1] (conc. 0.00774313 μM); 17.8947 and 11.579 and 18.2895 in series [1] (conc. 0.0255523 μM); 16.7105 and 20.2632 and 17.8947 in series [1] (conc. 0.0843226 μM); 34.8684 and 32.5 and 38.8158 in series [1] (conc. 0.278265 μM); 53.8158 and 43.9474 and 58.5526 in series [1] (conc. 0.918274 μM). In addition, the “inhibition of osteoclastogenesis” value in series [1] (conc. 3.0303 μM) was 73.9474 and 71.9737 and 70.3947; in series [1] (conc. 10 μM), 88.5526 and 83.421 and 86.579; in series [1] (conc. 33 μM), 100.

Turning to `CCOC(=O)c1sc(NC(=O)C(=NNc2cc(C)ccc2C(=O)O)C(C)=O)nc1C` [S3-10], in the series on RAW264.7 cells, the half-maximal cytotoxic concentration (CC50) was found to be 41.1 µM. The “inhibition of osteoclastogenesis” value in series [1] (conc. 0.0023464 μM) was 3.829 and 3.173 and -0.4376; in series [1] (conc. 0.00774313 μM), 4.486 and 2.516 and 3.173; in series [1] (conc. 0.0255523 μM) it was 5.142 and 3.173 and 7.1116; in series [1] (conc. 0.0843226 μM) it was 9.409 and 8.096 and 12.3632; in series [1] (conc. 0.278265 μM) it was 13.6761 and 23.1947 and 19.256; in series [1] (conc. 0.918274 μM), 34.0263 and 27.4617 (2×). For the same molecule, the “inhibition of osteoclastogenesis” value in series [1] (conc. 3.0303 μM) is 35.3392 and 33.3698 and 37.6368; in series [1] (conc. 10 μM) it was 87.1991 and 82.6039 and 90.1532; in series [1] (conc. 33 μM), 100.

With `CCOC(=O)c1sc(NC(=O)C(=NNc2c(C(=O)O)cccc2C(=O)O)C(C)=O)nc1C` [S3-19], the CC50 with RAW264.7 cells stood at 77.9 µM. Moreover, the concentration for half-maximal inhibition (IC50) in series [1] is 9.49 µM. Further, the “inhibition of osteoclastogenesis” value was 10.2719 and 4.834 (2×) in series [1] (conc. 0.0023464 μM); 5.287 and 4.834 and 5.74 in series [1] (conc. 0.00774313 μM); 0.7553 and 1.208 and 3.021 in series [1] (conc. 0.0255523 μM); 5.74 and 4.381 and -1.0574 in series [1] (conc. 0.0843226 μM); 18.8822 and 16.6163 and 15.2568 in series [1] (conc. 0.278265 μM); 19.7885 and 17.0695 and 17.5227 in series [1] (conc. 0.918274 μM). The “inhibition of osteoclastogenesis” value in series [1] (conc. 3.0303 μM) is 26.1329 and 38.3686 and 35.1964; in series [1] (conc. 10 μM), 44.713 (2×) and 40.6344; in series [1] (conc. 33 μM), 74.1692 and 70.997 and 80.0604.

As to `CCOC(=O)c1sc(NC(=O)C(=NNc2ccc(C)cc2C(=O)O)C(C)=O)nc1C` [S3-13], in the series on RAW264.7 cells, the cytotoxic concentration (CC50) is > 100 µM. Besides, the IC50 in series [1] turned out to be 10.7 µM. Moreover, the “inhibition of osteoclastogenesis” value was 1.735 and -0.7143 and 2.347 in series [1] (conc. 0.0023464 μM); 1.735 and -2.551 and 3.571 in series [1] (conc. 0.00774313 μM); 7.857 and -4.694 and -0.102 in series [1] (conc. 0.0255523 μM); 11.8367 and 3.878 and -9.592 in series [1] (conc. 0.0843226 μM); 11.2245 and 7.551 and -1.327 in series [1] (conc. 0.278265 μM); 7.2449 and 6.633 and 3.571 in series [1] (conc. 0.918274 μM). The “inhibition of osteoclastogenesis” value in series [1] (conc. 3.0303 μM) is 7.2449 and 2.959 and -1.327; in series [1] (conc. 10 μM), 47.6531 and 40.3061 and 42.7551; in series [1] (conc. 33 μM) it was 100.

In the case of `CC(=O)C(=NNc1ccccc1C(=O)O)C(=O)Nc1nc2ccccc2s1` [S3-16], the midpoint of cytotoxicity with RAW264.7 cells, the CC50, lay at 69.2 µM. Moreover, in series [1], the IC50 worked out at 0.73 µM. Moreover, the “inhibition of osteoclastogenesis” value in series [1] (conc. 0.00774313 μM) was 3.543 and 4.724 and 0.7874; in series [1] (conc. 0.0255523 μM), 9.449 and 8.661 (2×); in series [1] (conc. 0.0843226 μM), 16.9291 and 24.4094 and 12.9921; in series [1] (conc. 0.278265 μM) it was 30.315 and 29.5276 and 31.1024; in series [1] (conc. 0.918274 μM), 51.1811 and 52.7559 and 54.7244; in series [1] (conc. 3.0303 μM), 73.2284 and 71.6535 and 75.1968. Also, the “inhibition of osteoclastogenesis” value in series [1] (conc. 10 μM) was 82.6772 and 95.2756 and 99.2126; in series [1] (conc. 33 μM), 100.

For `CC(=O)C(=NNc1ccccc1C(=O)O)C(=O)N1CCOCC1` [S3-18], the midpoint of cytotoxicity in the series with RAW264.7 cells, the CC50, lay at 52.6 µM. The “OC IC50 (anti-osteoclastogenesis activity)” value in series [1] is listed as “Inactive”.

On to `CCOC(=O)c1sc(NC(=O)C(=NNc2ccccc2CO)C(C)=O)nc1C` [S3-07], for which, in the series with RAW264.7 cells, the 50% cytotoxic concentration (CC50) was found to be 49.1 µM. In series [1], the “OC IC50 (anti-osteoclastogenesis activity)” value was “inactive; also recorded: lose osetoclastogenesis inhibitory activities” and the IC50 was determined as 2.33 µM.

`CC(=O)C(=NNc1ccccc1C(=O)O)C(=O)Nc1nc(C)c(C(=O)N2CCOCC2)s1` [S3-20]: the CC50 in the series with RAW264.7 cells is > 100 µM. For the same molecule, the IC50 in series [1] was 8.71 µM. In addition, the “inhibition of osteoclastogenesis” value is -0.2448 and 3.06 and 1.591 in series [1] (conc. 0.0023464 μM); 8.935 and 4.896 and 2.326 in series [1] (conc. 0.00774313 μM); 5.263 and 4.529 and 0.8568 in series [1] (conc. 0.0255523 μM); 5.63 and 2.326 and 1.591 in series [1] (conc. 0.0843226 μM); 4.529 and 3.06 and 3.794 in series [1] (conc. 0.278265 μM); 5.63 and 5.263 (2×) in series [1] (conc. 0.918274 μM). The “inhibition of osteoclastogenesis” value in series [1] (conc. 3.0303 μM) was 5.263 and 7.466 and 5.998; in series [1] (conc. 10 μM), 58.8739 and 58.1395 and 58.5067; in series [1] (conc. 33 μM), 97.4296 and 97.0624 and 96.328.

With `CCOC(=O)c1sc(NC(=O)C(=NNc2ccc(OC)cc2C(=O)O)C(C)=O)nc1C` [S3-21], in the series on RAW264.7 cells, the CC50 was > 100 µM. In series [1], the 50% inhibitory concentration (IC50) amounted to 0.95 µM. Further, the “inhibition of osteoclastogenesis” value is 1.224 and -3.182 and 3.06 in series [1] (conc. 0.0023464 μM); 7.099 and 0.1224 and 2.326 in series [1] (conc. 0.00774313 μM); 7.099 and 3.427 and 5.998 in series [1] (conc. 0.0255523 μM); 11.5055 and 14.0759 and 15.9119 in series [1] (conc. 0.0843226 μM); 35.7405 and 36.4749 and 35.0061 in series [1] (conc. 0.278265 μM); 54.8348 and 53.7332 and 55.5692 in series [1] (conc. 0.918274 μM). The “inhibition of osteoclastogenesis” value in series [1] (conc. 3.0303 μM) was 59.2411 and 62.1787 and 63.2803; in series [1] (conc. 10 μM) it was 74.6634 and 76.8666 and 77.9682; in series [1] (conc. 33 μM), 100.

With `CC(=O)C(=NNc1ccc(O)cc1C(=O)O)C(=O)Nc1ccccn1` [S3-15-3], in the series on RAW264.7 cells, the half-maximal cytotoxic concentration (CC50) came to 62.8 µM. The IC50 in series [1] was 3.59 µM. The “inhibition of osteoclastogenesis” value in series [1] (conc. 0.0023464 μM) is 7.632 and 19.0789 and 12.7632; in series [1] (conc. 0.00774313 μM), 4.079 and 5.263 and 2.105; in series [1] (conc. 0.0255523 μM) it was 2.105 and -3.421 and -3.026; in series [1] (conc. 0.0843226 μM), 11.579 and 29.3421 and 8.026; in series [1] (conc. 0.278265 μM) it was 15.5263 and 26.9737 and 19.0789; in series [1] (conc. 0.918274 μM), 44.7368 and 36.4474 and 37.6316. In addition, the “inhibition of osteoclastogenesis” value in series [1] (conc. 3.0303 μM) was 52.6316 and 53.8158 and 45.1316; in series [1] (conc. 10 μM), 64.4737 and 56.1842 and 57.3684; in series [1] (conc. 33 μM), 73.9474 and 72.3684 and 70.7895.

Regarding `CC(=O)C(=NNc1ccccc1C(=O)O)C(=O)Nc1nc(C)cs1` [S3-08], the CC50 with RAW264.7 cells was > 100 µM. Moreover, the IC50 in series [1] was 2.33 µM and 2.34 µM. Also, the “inhibition of osteoclastogenesis” value was 1.304 and -3.21 and -2.307 in series [1] (conc. 0.0023464 μM); 3.711 and 2.508 and 1.304 in series [1] (conc. 0.00774313 μM); 3.109 and 3.41 and 5.517 in series [1] (conc. 0.0255523 μM); 6.118 and 6.419 and 8.225 in series [1] (conc. 0.0843226 μM); 18.7563 and 19.0572 and 20.2608 in series [1] (conc. 0.278265 μM); 29.8897 and 31.0933 and 35.005 in series [1] (conc. 0.918274 μM). Moreover, the “inhibition of osteoclastogenesis” value in series [1] (conc. 3.0303 μM) was 50.9529 and 40.7222 and 44.6339; in series [1] (conc. 10 μM), 83.7512 and 85.2558 and 78.6359; in series [1] (conc. 33 μM) it was 100.
